Measured values from patent US10375962B2, “Heterocycle derivatives as pesticides” (BAYER CROPSCIENCE AKTIENGESELLSCHAFT, priority 2016, dated 2019).

Experiments:
[1] = test system: adult cat fleas (Ctenocephalides felis); assay: Ctenocephalides felis - in vitro contact tests with adult cat fleas; type: in vivo; details: application rate 5 μg/cm^2; after 48 h
Description: For the coating of the test tubes, 9 mg of active compound are first dissolved in 1 ml of acetone p.a. and then diluted to the desired concentration with acetone p.a. 250 μl of the solution are distributed homogeneously on the inner walls and the base of a 25 ml test tube by turning and rocking on an orbital shaker (rocking rotation at 30 rpm for 2 h). With 900 ppm of active compound solution and internal surface area 44.7 cm^2, given homogeneous distribution, an area-based dose of 5 μg/cm^2 is achieved.
After the solvent has evaporated off, the tubes are populated with 5-10 adult cat fleas (Ctenocephalides felis), sealed with a perforated plastic lid and incubated in a horizontal position at room temperature and ambient humidity. After 48 h, efficacy is determined. To this end, the test tubes are stood upright and the fleas are knocked to the base of the tube. Fleas which remain motionless at the base or move in an uncoordinated manner are considered to be dead or moribund.
100% efficacy means that all the fleas were dead or moribund. 0% efficacy means that no fleas were harmed.

[2] = test system: green peach aphid (Myzus persicae); assay: Myzus persicae spray test (bell pepper plants); type: in vivo; details: application rate 20 ppm, after 6 days
Description: Solvent: 14 parts by weight of dimethylformamide
(§1) Emulsifier: alkylaryl polyglycol ether
To produce a suitable active compound formulation, 1 part by weight of active compound is dissolved with the stated parts by weight of solvent and made up with water containing an emulsifier concentration of 1000 ppm until the desired concentration is attained. To produce further test concentrations, the formulation is diluted with emulsifier-containing water. If the addition of ammonium salts or/and penetrants is required, these are each added in a concentration of 1000 ppm to the formulation solution.
Bell pepper plants (Capsicum annuum) severely infested with the green peach aphid (Myzus persicae) are treated by spraying with the active compound formulation in the desired concentration.
After 6 days, the kill in % is determined. 100% means that all of the aphids have been killed; 0% means that none of the aphids have been killed.

[3] = test system: larvae of the mustard beetle (Phaedon cochleariae); assay: Phaedon cochleariae - spray test; type: in vivo; details: after 7 days
Description: Solvent: 78.0 parts by weight of acetone • • 1.5 parts by weight of dimethylformamide
as §1
(§2) To produce a suitable active compound formulation, 1 part by weight of active compound is dissolved with the stated parts by weight of solvent and made up with water containing an emulsifier concentration of 1000 ppm until the desired concentration is attained. To produce further test concentrations, the formulation is diluted with emulsifier-containing water.
Discs of Chinese cabbage leaves (Brassica pekinensis) are sprayed with an active compound formulation of the desired concentration and, after drying, populated with larvae of the mustard beetle (Phaedon cochleariae).
After 7 days, the efficacy in % is determined. 100% means that all the beetle larvae have been killed and 0% means that none of the beetle larvae have been killed.

[4] = log P by HPLC on a reversed-phase column (C 18), EEC Directive 79/831 Annex V.A8; type: physicochemical
From the text: Called log P (HCOOH) in the table.
Called log P (neutral) in the table.

[5] = test system: unfed adult cat fleas (Ctenocephalides felis); assay: Ctenocephalides felis - oral test; type: in vivo; details: application rate 100 ppm in citrated cattle blood; after 2 days
Description: (§3) Solvent: dimethyl sulphoxide
For the purpose of production of a suitable active compound formulation, 10 mg of active compound are mixed with 0.5 ml of dimethyl sulphoxide. Dilution with citrated cattle blood gives the desired concentration.
About 20 unfed adult cat fleas (Ctenocephalides felis) are placed into a chamber which is closed at the top and bottom with gauze. A metal cylinder whose bottom end is closed with parafilm is placed onto the chamber. The cylinder contains the blood/active compound formulation, which can be imbibed by the fleas through the parafilm membrane.
After 2 days, the kill in % is determined. 100% means that all of the fleas have been killed; 0% means that none of the fleas have been killed.

[6] = test system: adult houseflies (Musca domestica); assay: Musca domestica test; type: in vivo; details: application rate 100 ppm; after 2 days
Description: as §3
(§4) To produce a suitable active compound formulation, 10 mg of active compound are mixed with 0.5 ml of dimethyl sulphoxide, and the concentrate is diluted with water to the desired concentration.
Vessels containing a sponge treated with sugar solution and the active compound formulation of the desired concentration are populated with 10 adult houseflies (Musca domestica).
After 2 days, the kill in % is determined. 100% means that all of the flies have been killed; 0% means that none of the flies have been killed.

[7] = test system: caterpillars of the armyworm (Spodoptera frugiperda); assay: Spodoptera frugiperda - spray test; type: in vivo; details: maize leaf discs, after 7 days
Description: Solvent: 78.0 parts by weight of acetone • • 1.5 parts by weight of dimethylformamide Emulsifier: alkylaryl polyglycol ether […] To produce further test concentrations, the formulation is diluted with emulsifier-containing water. Leaf discs of maize (Zea mays) are sprayed with an active compound preparation of the desired concentration and, after drying, populated with caterpillars of the armyworm (Spodoptera frugiperda).

[8] = test system: L1 larvae of the Australian sheep blowfly (Lucilia cuprina); assay: Lucilia cuprina test; type: in vivo; details: application rate 100 ppm; after 2 days
Description: as §3, §4
About 20 L1 larvae of the Australian sheep blowfly (Lucilia cuprina) are transferred into a test vessel containing minced horsemeat and the active compound formulation of the desired concentration.
After 2 days, the kill in % is determined. 100% means that all the larvae have been killed; 0% means that no larvae have been killed.

[9] = test system: engorged adult female cattle ticks (Boophilus microplus); assay: Boophilus microplus - injection test; type: in vivo; details: application rate 20 μg/animal, after 7 days
Description: as §3
To produce a suitable active compound formulation, 10 mg of active compound are mixed with 0.5 ml of solvent and the concentrate is diluted with solvent to the desired concentration.
1 μl of the active compound solution is injected into the abdomen of 5 engorged adult female cattle ticks (Boophilus microplus). The animals are transferred into dishes and kept in a climate-controlled room.
Efficacy is assessed after 7 days by laying of fertile eggs. Eggs which are not visibly fertile are stored in a climate-controlled cabinet until the larvae hatch after about 42 days. An efficacy of 100% means that none of the ticks has laid any fertile eggs; 0% means that all the eggs are fertile.

[10] = test system: green peach aphid (Myzus persicae); assay: Myzus persicae - spray test (Chinese cabbage leaf discs); type: in vivo; details: after 5 days
Description: Solvent: 78 parts by weight of acetone • • 1.5 parts by weight of dimethylformamide Emulsifier: alkylaryl polyglycol ether
as §2
Discs of Chinese cabbage leaves (Brassica pekinensis) infested by all stages of the green peach aphid (Myzus persicae) are sprayed with an active compound formulation of the desired concentration.
After 5 days, the efficacy in % is determined. 100% means that all the aphids have been killed and 0% means that none of the aphids have been killed.

[11] = acidic range, pH 2.7, 0.1% aqueous formic acid/acetonitrile, 55° C.
[12] = neutral range, pH 7.8, 0.001 molar aqueous ammonium hydrogencarbonate/acetonitrile, 55° C.

CCS(=O)(=O)c1ccc(N2Cc3ccc(Cl)cc3C2)nc1-c1nc2cc(C(F)(F)F)ncc2n1C [Example I-18]
efficacy (fleas dead or moribund) [1]: 100% | efficacy (kill) [2]: 98% | efficacy ([3]; application rate 100 g/ha): 100% | efficacy ([3]; application rate 500 g/ha): 100% | LOGP_HCOOH (log P (HCOOH)) ([4]; pH 2.7): 4.03 | LOGP_NEUTRAL (log P (neutral)) ([4]; pH 7.8): 3.99 | efficacy (kill) [5]: 100% | efficacy (kill) [6]: 80% | efficacy ([7]; application rate 100 g/ha): 100% | efficacy ([7]; application rate 500 g/ha): 100% | efficacy (kill) [8]: 100%

CCS(=O)(=O)c1ccc(-n2cc3cccc(Cl)c3n2)nc1-c1nc2cc(C(F)(F)F)ncc2n1C [Example I-5]
efficacy (laying of fertile eggs) [9]: 80% | efficacy ([10]; application rate 100 g/ha): 70% | efficacy ([10]; application rate 500 g/ha): 90% | efficacy ([3]; application rate 500 g/ha): 100% | LOGP_HCOOH (log P (HCOOH)) [4, 11]: 3.94 | LOGP_NEUTRAL (log P (neutral)) [4, 12]: 3.92 | efficacy ([7]; application rate 100 g/ha): 100% | efficacy ([7]; application rate 500 g/ha): 100% | efficacy (kill) [8]: 100%

CCS(=O)(=O)c1ccc(-n2ncc3c(Cl)cccc32)nc1-c1nc2cc(C(F)(F)F)ncc2n1C [Example I-10]
efficacy (laying of fertile eggs) [9]: 80% | efficacy ([3]; application rate 100 g/ha): 100% | efficacy ([3]; application rate 500 g/ha): 100% | LOGP_HCOOH (log P (HCOOH)) [4, 11]: 4.27 | LOGP_NEUTRAL (log P (neutral)) [4, 12]: 4.24 | efficacy (kill) [6]: 100% | efficacy ([7]; application rate 100 g/ha): 100% | efficacy ([7]; application rate 500 g/ha): 100% | efficacy (kill) [8]: 100%

CCS(=O)(=O)c1ccc(-n2nc3c(Cl)cc(C(F)(F)F)cn3c2=O)nc1-c1nc2cc(C(F)(F)F)ncc2n1C [Example I-32]
efficacy ([3]; application rate 100 g/ha): 100% | efficacy ([3]; application rate 500 g/ha): 100% | LOGP_NEUTRAL (log P (neutral)) ([4]; pH 7.8): 3.39 | efficacy (kill) [5]: 100% | efficacy (kill) [6]: 100% | efficacy ([7]; application rate 100 g/ha): 83% | efficacy ([7]; application rate 500 g/ha): 100% | efficacy (kill) [8]: 100%

CCS(=O)(=O)c1ccc(N2Cc3ccc(Cl)cc3C2=O)nc1-c1nc2cc(C(F)(F)F)ncc2n1C [Example I-34]
efficacy (fleas dead or moribund) [1]: 100% | efficacy (kill) [2]: 100% | efficacy ([3]; application rate 100 g/ha): 100% | efficacy ([3]; application rate 500 g/ha): 100% | LOGP_HCOOH (log P (HCOOH)) ([4]; pH 2.7): 3.83 | LOGP_NEUTRAL (log P (neutral)) ([4]; pH 7.8): 3.79 | efficacy (kill) [5]: 95% | efficacy ([7]; application rate 100 g/ha): 100% | efficacy ([7]; application rate 500 g/ha): 100% | efficacy (kill) [8]: 100%

CCS(=O)(=O)c1ccc(-n2ncc3cccnc32)nc1-c1nc2cc(C(F)(F)F)ncc2n1C [Example I-6]
efficacy (fleas dead or moribund) [1]: 100% | efficacy (laying of fertile eggs) [9]: 90% | efficacy ([10]; application rate 100 g/ha): 100% | efficacy ([10]; application rate 500 g/ha): 100% | efficacy ([3]; application rate 100 g/ha): 100% | efficacy ([3]; application rate 500 g/ha): 100% | LOGP_HCOOH (log P (HCOOH)) ([4]; pH 2.7): 2.67 | LOGP_NEUTRAL (log P (neutral)) ([4]; pH 7.8): 2.63 | efficacy (kill) [5]: 90% | efficacy (kill) [6]: 100% | efficacy ([7]; application rate 100 g/ha): 100% | efficacy ([7]; application rate 500 g/ha): 100% | efficacy (kill) [8]: 100%

CCS(=O)(=O)c1ccc(-n2ncc3cnccc32)nc1-c1nc2cc(C(F)(F)F)ncc2n1C [Example I-11]
efficacy (laying of fertile eggs) [9]: 90% | efficacy ([3]; application rate 500 g/ha): 83% | LOGP_HCOOH (log P (HCOOH)) [4, 11]: 1.75 | LOGP_NEUTRAL (log P (neutral)) [4, 12]: 2.47
